The values below come from patent US11351399B2, “Combined local delivery of therapeutic agents using interventional devices and radiation” (The University of North Carolina At Chapel Hill, priority 2014, dated 2022).

Where “and” joins values, the source holds several entries; their conditions need not be identical. Equal entries are not always repeated. Where two headings read alike, the source gives them in different places.

Series [1] can be described thus: biodistribution/PK of device and/or IV cisplatin in orthotopic SUM149 cell xenograft model. The class given is in vivo, mice. The method, then: Device delivery of cisplatin was evaluated using an orthotopic SUM149 cell xenograft model of breast cancer. In addition to studying iontophoretic delivery as compared to IV delivery of the cisplatin, concurrent device and IV delivery was added as an arm of the study based upon the low systemic exposure of cisplatin. In the study, a single treatment was administered after adhesion of the device to the skin above the tumor.

Series [2] in a line: ex vivo cisplatin transport into human skin, modified Franz diffusion cell. Particulars: 1 mA for 25 minutes, ~1 mm thick skin, ICP-MS.
Method: Ex vivo drug transport studies were also conducted by transporting cisplatin into ˜1 mm thick human skin and were evaluated using a modified Franz diffusion cell with the test drug transport device directly above the skin instead of a donor chamber. During the testing, 1 or 0 mA of current was applied for 25 minutes, and the skin and solution were snap frozen, processed, and analyzed by inductively coupled plasma-mass spectrometry (ICP-MS).
Series [3] deals with SUM149 cell xenograft orthotopic breast cancer model. The class given is in vivo, mice. Particulars: for median lifespan: control median 49 days; for tumor growth inhibition: weekly, four doses. The method, then: (§1) Iontophoretic delivery of cisplatin in was tested in both SUM149 cell xenograft and T11 syngeneic orthotopic breast cancer models. For both models, the efficacies of device cisplatin, IV cisplatin, device+IV cisplatin, device saline, and IV saline were compared.
(§2) For the SUM149 xenograft model, once the tumors reached ˜50 mm^3, the mice were treated with device cisplatin, IV cisplatin (5 mg/kg), device+IV cisplatin (5 mg/kg), device saline, or IV saline every week for four total doses, as shown in FIGS. 35A and 35B. […] For the T11 model, mice received two doses of device cisplatin, IV cisplatin (5 mg/kg), device+IV cisplatin (5 mg/kg), device saline, or IV saline every week for two total doses beginning five days after inoculation (˜20 mm^3), as shown in FIGS. 35C and 35D. The number of treatments varied between tumor models because of the differences in tolerability of treatments.

Series [4] deals with T11 syngeneic orthotopic breast cancer models. The experiment in a line: combined cisplatin and radiation efficacy, T11 syngeneic model. The class given is in vivo, mice. Particulars: single dose. The method, then: Using T11 syngeneic orthotopic breast cancer models, radiotherapy was tested as an alternative and/or additional treatment method to device and IV cisplatin to compare the therapeutic effects of the various treatments. Mice received a single dose of radiation (10 Gy), device cisplatin, device cisplatin+radiation (10 Gy), IV cisplatin (5 mg/kg), IV cisplatin+radiation (10 Gy), device+IV cisplatin (5 mg/kg), and device cisplatin+IV cisplatin (5 mg/kg)+radiation (10 Gy) five days after inoculation (˜20 mm^3).

In series [5] the test system is T11 syngeneic orthotopic breast cancer model. The experiment in a line: tumor treatment efficacy of cisplatin, T11 syngeneic model. It is filed as in vivo, mice. Conditions: for median lifespan: control median 10 days; for tumor growth inhibition: two doses. As for the experimental part: as §1, §2
Series [6] has as its system orthotopic PDX model of pancreatic cancer. Particulars: for mice with tumor regression: twice a week up to 7 weeks.
Method: Iontophoretic devices were surgically implanted into orthotopic PDX tumors when their size reached ˜200 mm^3, as determined by high resolution 3D ultrasound. Mice were treated twice a week for up to 7 weeks with device gemcitabine (20 mg/mL), device saline (0.9% NaCl), IV Gemcitabine (80 mg/kg), or IV saline. Tumor volumes were measured by volume displacement after completion of the scheduled treatment due to the interference of implanted devices with ultrasound imaging.
Series [7] can be described thus: PK study of device versus IV gemcitabine in non-tumor bearing dogs. The class given is in vivo. As for the experimental part:
Since there was no readily available large animal model for pancreatic cancer, a representative non-tumor bearing large animal model (Dogs) for humans was used. A laparotomy was performed and iontophoretic devices (shown in FIG. 41) were sutured directly onto the pancreas. A constant current of 10 mA was applied for 60 minutes using either 40 or 10 mg/mL gemcitabine (n=5, per group). […] For the IV treatment arm (n=4, per group), clinical protocol was followed for gemcitabine administration, which was an infusion of a 1 g/m^2 dose for thirty minutes, and the animal was euthanized 60 minutes after the start of the infusion. The plasma was sampled at 15 minute increments before, during, and after therapy. After therapy, the tissues were removed, flash-frozen, and analyzed by UV-HPLC.

Series [8] can be described thus: ex vivo drug transport in pancreatic cancer PDX tumors. Particulars: 2 mA for 10 minutes, device sutured onto ex vivo PDX tumor, UV-HPLC. The class given is in vitro ADME. As for the experimental part:
Ex vivo drug transport studies were conducted using pancreatic cancer patient-derived xenografts (PDXs). Test drug transport devices were sutured onto the ex vivo PDX tumors and a counter electrode was placed on the contralateral side of the tumor. 2 or 0 mA of current was applied for 10 minutes and the tumors were subsequently snap frozen, processed, and analyzed by UV-high performance liquid chromatography (HPLC).

A short description of a further series: in vivo. Conditions: mouse. An excerpt: Orthotopic PDX models of pancreatic cancer were used to characterize iontophoretic delivery of gemcitabine with respect to pharmacokinetics (PK).
In the present example, IV delivery of gemcitabine was compared to local iontophoretic delivery of gemcitabine.

The mark [9] stands for this setting: device+IV cisplatin (5 mg/kg) + radiation (10 Gy).

As for `[NH2][Pt]([NH2])([Cl])[Cl]` [cisplatin], the “Platinum Plasma Exposure (AUC)” value in [1] (Device + IV (5 mg/kg) Delivery) was 10650 ng·h/mL; in series [1] (Device Delivery, single treatment) it was 1990 ng·h/mL; in series [1] (IV (5 mg/kg) Delivery), 9910 ng·h/mL. In series [2], the “fold increase in platinum transported into the human skin versus passive diffusion (0 mA)” value is 11.4 fold. In addition, the median lifespan is given as 68 days in series [3] (IV cisplatin (5 mg/kg)); 60 days in series [3] (device cisplatin); > 100 days in series [3] (device+IV cisplatin (5 mg/kg)); 22 days in [5] (IV cisplatin (5 mg/kg)); 20 days in series [5] (device cisplatin); 32 days in [5] (device+IV cisplatin (5 mg/kg)). For the same compound, the “tumor γH2AX staining, device cisplatin versus IV cisplatin” value in series [3] (device cisplatin, tumors post treatment) is “almost equivalent γH2AX staining”. Further, the tumor growth inhibition entry was “significant tumor growth inhibition” in [3] (device cisplatin, similar to IV cisplatin until day 42); “significant tumor growth inhibition” in series [3] (device+IV cisplatin (5 mg/kg)); “significant tumor growth inhibition” in series [5] (device cisplatin, similar to IV cisplatin until day 9); “significant tumor growth inhibition” in series [5] (device+IV cisplatin (5 mg/kg)). In series [3] (device+IV cisplatin, tumors post treatment), the “tumor γH2AX staining” value was “greater γH2AX staining”. In addition, the “skin of the mice after device treatment” value in [3] (mouse, in vivo) was “no scarring or deformation”. Moreover, the “tolerability by kidney γH2AX staining compared to IV cisplatin and device+IV cisplatin” value in series [3] (mouse, in vivo) is “better tolerated”. In addition, the “survival on addition of radiation” value in series [4] (IV cisplatin (5 mg/kg) + radiation (10 Gy)), in series [4] (device cisplatin + radiation (10 Gy)) and in series [4] (setting [9]) was “significantly improved survival” throughout. Also, the “tumor growth inhibition and survival versus other groups” value in series [4] (setting [9]) is recorded as “outperformed all other treatment groups”.

On to `Nc1ccn([C@@H]2O[C@H](CO)[C@@H](O)C2(F)F)c(=O)n1` [gemcitabine], for which the entries for the “mean log2-fold change in tumor volume” value in series [6] (IV gemcitabine (80 mg/kg)) and in [6] (device gemcitabine (20 mg/mL)) were 1.1 and −0.8, respectively. Also, the “mice with tumor regression” value in [6] (IV gemcitabine (80 mg/kg)) was 0/7; in series [6] (device gemcitabine (20 mg/mL), 52-day study), 7 out of 7 and 7/7. Also, the “Ki-67 staining of tumors post treatment versus IV gemcitabine and saline arms” value in series [6] (device gemcitabine) is reported as “decrease in Ki-67 staining”. The “tolerability (body weight gain, alanine transaminase, lipase) compared to IV gemcitabine” value in series [6] (mouse, in vivo) is reported as “better tolerated”. Further, the gemcitabine in plasma result was “detected in the plasma of all dogs” in series [7] (IV infusion 1 g/m^2 for thirty minutes) and “no detectable gemcitabine” in the series “in vivo”. The “distance of gemcitabine transport away from the electrode” value in series [7] (device, 10 mg/mL) was determined as 6.3 mm; in series [7] (device, 40 mg/mL) it was 9.6 mm. For the same compound, the “fold increase in concentration of gemcitabine in the normal canine pancreas compared to IV administration” value in series [7] (device, 10 mg/mL) came out at 2.0 fold; in series [7] (device, 40 mg/mL), 7.1 fold. In addition, the drug in plasma entry in [7] (device, 10 mg/mL, 10 mA for 60 minutes) is recorded as “no drug detected”. Besides, the “dogs with detectable levels of gemcitabine in plasma” value in [7] (device, 40 mg/mL, 10 mA for 60 minutes) is 2 out of 5. Also, in series [7] (device, 40 mg/mL, dogs with detectable levels), the “fold lower plasma gemcitabine levels than the IV treatment” value is reported as “at least 25 fold”. The “fold increase in drug transport versus passive diffusion control (0 mA)” value in series [8] was 9.1 fold. The “gemcitabine tumor AUC” value was found to be 348070 ng·h/mL in the series “in vivo” and 30780 ng·h/mL in “in vivo” (iv, 80 mg/kg). The “distance away from the devices at which gemcitabine was detected” value is recorded as 4.7 mm in “in vivo” (0 h), 3 mm in the series “in vivo” (3 h) and 3 mm in the series “in vivo” (6 h). For the same compound, the AUC in the series “in vivo” (iv, 80 mg/kg) is 65200 ng·h/mL.
